Data as given in patent US20210115104A1, “AMYLIN ANALOGUES” (Zealand Pharma A/S, priority 2015, published 2021).
*1 amine or outer side, *2 acyl side, *3 side chain or, on linkers, in order; H or OH if unused. Where a SMILES comes first, the peptide text is derived from it. Bridges are numbered along the chain shown (N, C = ends). [ ]: non-standard residue; d: D form. The star is where a group is joined. C20 diacid = O=C(O)CCCCCCCCCCCCCCCCCCC(=O)*; γGlu = O=C(O)[C@H](CCC(=O)[*:2])N[*:1]; Hyp = O=C(O)[C@@H]1C[C@@H](O)CN1; NMeI = CC[C@H](C)[C@H](NC)C(=O)O; Sar = CNCC(=O)O

Legend:
[1] = Assessment of chemical stability (RP-HPLC normalized purity); assay type: physicochemical; details: 7 days, 40° C., Table 1; for Normalized purity after 7 days, 40° C., pH 4: pH 4, 0.2 mg/ml; for Normalized purity after 7 days, 40° C., pH 6: pH 6, 0.2 mg/ml; for Normalized purity after 7 days, 40° C., pH 7.5: pH 7.5, 0.2 mg/ml; for Normalized purity after 7 days, 40° C., pH 9: pH 9, 0.2 mg/ml
Procedure, shortened: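 Purity after 7 days at 40° C is expressed relative to T=0 (set to 100) for each pH. Samples at 0.2 mg/ml, pH 4, 6, 7.5 or 9, analyzed by RP-HPLC with UV 220 nm on C8 (ammonium formate) or C18 (TFA) gradients.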

[2] = molecular target: T1, human amylin receptor 3 (hAMYR3), hCTR2 co-expressed with hRAMP3 (Homo sapiens, UniProt O60896+P30988); test: hAMYR3 cAMP assay (AlphaScreen) in COS7 cells; assay type: cell-based; details: cAMP induction, COS7 cells expressing hAMYR3; Table 1; read-out: hAMYR3 EC50
T1 construct: expressed in transfected cells
T1 sequence (P30988 25-474): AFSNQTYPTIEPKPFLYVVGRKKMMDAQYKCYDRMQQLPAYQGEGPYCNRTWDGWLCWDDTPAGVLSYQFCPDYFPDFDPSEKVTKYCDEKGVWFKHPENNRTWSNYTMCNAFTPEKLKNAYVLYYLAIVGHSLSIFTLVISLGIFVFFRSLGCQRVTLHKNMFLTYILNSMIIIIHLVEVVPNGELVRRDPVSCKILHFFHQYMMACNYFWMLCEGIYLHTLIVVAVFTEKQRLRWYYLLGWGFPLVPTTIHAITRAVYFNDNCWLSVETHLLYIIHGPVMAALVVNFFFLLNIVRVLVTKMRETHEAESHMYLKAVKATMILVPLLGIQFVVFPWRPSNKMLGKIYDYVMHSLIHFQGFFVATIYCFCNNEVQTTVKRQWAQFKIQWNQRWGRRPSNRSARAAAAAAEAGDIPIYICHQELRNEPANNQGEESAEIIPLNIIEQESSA
T1 sequence (O60896 24-148 partner): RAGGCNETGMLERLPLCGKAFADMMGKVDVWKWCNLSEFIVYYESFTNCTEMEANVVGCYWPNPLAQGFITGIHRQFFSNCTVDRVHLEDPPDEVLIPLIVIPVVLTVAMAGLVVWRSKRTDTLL
Procedure, shortened: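 EC50 values derive from 4PL curve fits of cAMP (AlphaScreen) in lysates of RAMP-naive COS7 cells stably carrying hCTR2 plus hRAMP3. Peptide dilution series were applied for 15 min at 37 °C in pH 7.4 Tyrode buffer containing 100 µM IBMX and 0.1% casein.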

[3] = molecular target: T2, human calcitonin receptor (hCTR2) (Homo sapiens, UniProt P30988); test: hCTR2 cAMP assay (AlphaScreen) in COS7 cells; assay type: cell-based; details: cAMP induction, COS7 cells expressing hCTR2; Table 1; read-out: hCTR2 EC50
T2 construct: expressed in transfected cells
T2 sequence (P30988 25-474): T1 sequence (P30988 25-474)
Procedure, shortened: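 cAMP induction, read by AlphaScreen after lysis, gives EC50 values via 4PL curve fitting. Peptides were applied at rising concentrations for 15 min at 37 °C, with IBMX and 0.1% casein in HEPES-buffered Tyrode pH 7.4, to COS7 cells (no endogenous RAMPs) stably expressing human CTR2.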

Row | Normalized purity after 7 days, 40° C., pH 4 [1] | Normalized purity after 7 days, 40° C., pH 6 [1] | Normalized purity after 7 days, 40° C., pH 7.5 [1] | Normalized purity after 7 days, 40° C., pH 9 [1] | EC50 [2] [nM] | EC50 [3] [nM] | Structure (SMILES)
1 | A (A = >90%) | A (A = >90%) | A (A = >90%) | A (A = >90%) | 0.23 | 0.1 | CC[C@H](C)[C@@H](C(=O)N[C@@H](CC(C)C)C(=O)N[C@@H](CO)C(=O)N[C@@H](CO)C(=O)N[C@H](C(=O)N[C@@H](CCC(=O)O)C(=O)N[C@H](C(=O)NCC(=O)N[C@@H](CO)C(=O)NCC(=O)N[C@H](C(=O)N1C[C@H](O)C[C@H]1C(N)=O)[C@@H](C)O)C(C)C)[C@@H](C)O)N(C)C(=O)[C@H](C)NC(=O)CN(C)C(=O)[C@H](Cc1ccccc1)NC(=O)[C@H](CO)NC(=O)[C@H](CO)NC(=O)[C@H](CCCNC(=N)N)NC(=O)[C@H](CCC(N)=O)NC(=O)[C@H](CC(C)C)NC(=O)[C@H](Cc1ccccc1)NC(=O)[C@H](CC(=O)O)NC(=O)[C@H](C)NC(=O)[C@H](CC(C)C)NC(=O)[C@H](CCCNC(=N)N)NC(=O)[C@H](CCC(N)=O)NC(=O)[C@@H](NC(=O)[C@H](C)NC(=O)[C@@H]1CSSC[C@H](NC(=O)[C@H](CCCNC(=N)N)NC(=O)CC[C@H](NC(=O)CCCCCCCCCCCCCCCCCCC(=O)O)C(=O)O)C(=O)N[C@@H](CC(N)=O)C(=O)N[C@@H]([C@@H](C)O)C(=O)N[C@@H](C)C(=O)N[C@@H]([C@@H](C)O)C(=O)N1)[C@@H](C)O [Compound 81, [19CD]-isoGlu-R-C( )-NTAT-C( )-ATQRLADFLQRSSF-Gly(Me)-A-Ile(Me)-LSSTEVGSGT-Hyp-NH2] ({C20 diacid-γGlu}-RCNTATCATQRLADFLQRSSF[Sar]A[NMeI]LSSTEVGSGT[Hyp]-NH2; disulfide 2-7)
2 | B (B = 70-90%) | A (A = >90%) | A (A = >90%) | A (A = >90%) | 0.34 | 0.15 | CC[C@H](C)[C@@H](C(=O)N[C@@H](CC(C)C)C(=O)N[C@@H](CO)C(=O)N[C@@H](CO)C(=O)N[C@H](C(=O)N[C@@H](CCC(=O)O)C(=O)N[C@H](C(=O)NCC(=O)N[C@@H](CO)C(=O)N[C@@H](CO)C(=O)N[C@H](C(=O)N1C[C@H](O)C[C@H]1C(N)=O)[C@@H](C)O)C(C)C)[C@@H](C)O)N(C)C(=O)[C@H](C)NC(=O)CN(C)C(=O)[C@H](Cc1ccccc1)NC(=O)[C@H](CO)NC(=O)[C@H](CO)NC(=O)[C@H](CCCNC(=N)N)NC(=O)[C@@H](NC(=O)[C@H](CC(C)C)NC(=O)[C@H](Cc1ccccc1)NC(=O)[C@H](CC(=O)O)NC(=O)[C@H](C)NC(=O)[C@H](CC(C)C)NC(=O)[C@H](CCCNC(=N)N)NC(=O)[C@H](CCC(=O)O)NC(=O)[C@@H](NC(=O)[C@H](C)NC(=O)[C@@H]1CSSC[C@H](NC(=O)[C@H](CCCNC(=N)N)NC(=O)CC[C@H](NC(=O)CCCCCCCCCCCCCCCCCCC(=O)O)C(=O)O)C(=O)NCC(=O)N[C@@H]([C@@H](C)O)C(=O)N[C@@H](C)C(=O)N[C@@H]([C@@H](C)O)C(=O)N1)[C@@H](C)O)[C@@H](C)O [Compound 41, [19CD]-isoGlu-R-C( )-GTAT-C( )-ATERLADFLTRSSF-Gly(Me)-A-Ile(Me)-LSSTEVGSST-Hyp-NH2] ({C20 diacid-γGlu}-RCGTATCATERLADFLTRSSF[Sar]A[NMeI]LSSTEVGSST[Hyp]-NH2; disulfide 2-7)
